# Results published in patent publication US20030083324A1, “Photosensitizing ointment” (CeramOptec Industries, Inc., priority 2000, published 2003).
# Conditions: especially when diluted with cream to <20% (w/w)
# Text: The phototoxic compounds can be mixed with the carrier in a solubilized form.
smiles,measurement,value
COCCO [2-methoxy ethanol],toxicity to human skin,no toxicity
